As usually defined, the Ki is a dissociation constant, usually derived from enzyme kinetics or from competition with a known ligand. Lower therefore signals tighter binding.

Experimental findings from ChEMBL document CHEMBL1152959, “Design, synthesis and dopamine D4 receptor binding activities of new N-heteroaromatic 5/6-ring Mannich bases” (Bioorg Med Chem, 2009) are described below.

For assay [1], the target named is T1, D(2) dopamine receptor (Homo sapiens, UniProt P14416). The assay is described as follows: biochemical.
Description: Displacement of [3H]spiroperidol from human cloned dopamine D2 short receptor expressed in CHO cells
A further assay addresses T2, D(4) dopamine receptor (Homo sapiens, UniProt P21917).
T2 sequence (P21917 whole entry): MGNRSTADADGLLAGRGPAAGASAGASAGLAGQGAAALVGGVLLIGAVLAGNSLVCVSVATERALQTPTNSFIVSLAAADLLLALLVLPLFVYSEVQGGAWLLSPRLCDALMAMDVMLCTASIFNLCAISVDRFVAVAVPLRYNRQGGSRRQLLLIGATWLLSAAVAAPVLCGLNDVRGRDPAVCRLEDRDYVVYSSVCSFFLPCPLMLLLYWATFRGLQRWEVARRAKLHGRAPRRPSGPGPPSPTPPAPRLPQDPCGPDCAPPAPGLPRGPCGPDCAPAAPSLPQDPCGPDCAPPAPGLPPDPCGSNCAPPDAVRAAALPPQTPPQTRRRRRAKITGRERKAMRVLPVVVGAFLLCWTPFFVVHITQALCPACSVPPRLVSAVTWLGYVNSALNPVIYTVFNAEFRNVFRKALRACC
The experiment in a line: Displacement of [3H]spiroperidol from human cloned dopamine D4.4 receptor expressed in CHO cells. Type of assay: cell-based. On the technique in general: Displacement assays read how much labelled ligand stays bound in the presence of the test substance.

A further assay concerns the target D(1A) dopamine receptor (Bos taurus, UniProt Q95136).
Assay [2] has as its target T1, D(2) dopamine receptor. The experiment in a line: biochemical. This is another data set of the same source.
Description: Displacement of [3H]SCH23390 from human cloned dopamine D2 long receptor expressed in CHO cells
The target in assay [3] is D(1A) dopamine receptor (Sus scrofa) (UniProt P50130). The assay is described as follows: Displacement of [3H]SCH23390 from pig dopamine D1 receptor at 100 nM.
For another assay, the target named is D(3) dopamine receptor (Homo sapiens, UniProt P35462). The experiment in a line: biochemical.
Assay [4] addresses T1, D(2) dopamine receptor. The assay is described as follows: Displacement of [3H]spiperone from human cloned dopamine D2 long receptor expressed in CHO cells at 100 nM. Type of assay: cell-based.
Assay [5] concerns the target T3, D(4) dopamine receptor (Homo sapiens) (UniProt P21917).
T3 sequence (whole entry): T2 sequence (P21917 whole entry)
The experiment in a line: Displacement of [3H]spiperone from human cloned dopamine D4.4 receptor expressed in CHO cells at 100 nM. The class given is cell-based.

The structures appear in SMILES notation.

T1 sequence (P14416 whole entry): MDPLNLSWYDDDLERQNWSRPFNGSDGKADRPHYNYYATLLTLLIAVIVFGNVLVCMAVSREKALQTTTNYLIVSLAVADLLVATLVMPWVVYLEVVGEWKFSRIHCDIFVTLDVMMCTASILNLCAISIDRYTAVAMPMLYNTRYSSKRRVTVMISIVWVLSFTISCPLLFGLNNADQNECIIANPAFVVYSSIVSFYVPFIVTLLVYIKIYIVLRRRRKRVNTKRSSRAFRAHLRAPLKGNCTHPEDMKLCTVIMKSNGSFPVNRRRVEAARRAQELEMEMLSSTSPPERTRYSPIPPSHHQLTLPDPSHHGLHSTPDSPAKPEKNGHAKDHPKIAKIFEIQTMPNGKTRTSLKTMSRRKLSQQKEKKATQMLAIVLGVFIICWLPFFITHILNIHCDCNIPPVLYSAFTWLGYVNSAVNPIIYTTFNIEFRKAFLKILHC
Sequence of D(1A) dopamine receptor (Sus scrofa) (P50130 whole entry): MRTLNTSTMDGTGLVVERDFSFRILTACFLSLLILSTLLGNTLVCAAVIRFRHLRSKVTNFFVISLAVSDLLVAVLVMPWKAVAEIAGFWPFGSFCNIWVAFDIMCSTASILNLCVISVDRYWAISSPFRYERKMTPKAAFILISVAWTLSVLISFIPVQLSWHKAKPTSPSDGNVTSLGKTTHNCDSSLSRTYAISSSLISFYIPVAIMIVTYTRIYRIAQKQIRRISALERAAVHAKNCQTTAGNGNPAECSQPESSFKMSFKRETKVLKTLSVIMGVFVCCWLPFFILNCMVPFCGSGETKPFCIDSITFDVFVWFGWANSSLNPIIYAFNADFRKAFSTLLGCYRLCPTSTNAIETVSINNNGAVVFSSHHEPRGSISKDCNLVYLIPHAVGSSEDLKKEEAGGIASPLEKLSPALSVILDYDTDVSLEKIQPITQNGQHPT
Sequence of D(3) dopamine receptor (P35462 whole entry): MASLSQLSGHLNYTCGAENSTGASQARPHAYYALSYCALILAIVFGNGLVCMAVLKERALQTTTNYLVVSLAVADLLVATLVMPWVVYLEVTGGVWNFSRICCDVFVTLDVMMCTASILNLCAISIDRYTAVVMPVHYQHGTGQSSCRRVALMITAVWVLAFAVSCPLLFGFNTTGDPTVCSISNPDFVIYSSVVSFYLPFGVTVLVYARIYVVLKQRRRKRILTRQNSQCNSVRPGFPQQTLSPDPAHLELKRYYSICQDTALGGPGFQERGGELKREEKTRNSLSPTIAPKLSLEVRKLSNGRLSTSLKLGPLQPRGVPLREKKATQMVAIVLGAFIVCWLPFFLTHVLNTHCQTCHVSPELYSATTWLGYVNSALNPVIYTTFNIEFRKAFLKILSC
Sequence of D(1A) dopamine receptor (Q95136 whole entry): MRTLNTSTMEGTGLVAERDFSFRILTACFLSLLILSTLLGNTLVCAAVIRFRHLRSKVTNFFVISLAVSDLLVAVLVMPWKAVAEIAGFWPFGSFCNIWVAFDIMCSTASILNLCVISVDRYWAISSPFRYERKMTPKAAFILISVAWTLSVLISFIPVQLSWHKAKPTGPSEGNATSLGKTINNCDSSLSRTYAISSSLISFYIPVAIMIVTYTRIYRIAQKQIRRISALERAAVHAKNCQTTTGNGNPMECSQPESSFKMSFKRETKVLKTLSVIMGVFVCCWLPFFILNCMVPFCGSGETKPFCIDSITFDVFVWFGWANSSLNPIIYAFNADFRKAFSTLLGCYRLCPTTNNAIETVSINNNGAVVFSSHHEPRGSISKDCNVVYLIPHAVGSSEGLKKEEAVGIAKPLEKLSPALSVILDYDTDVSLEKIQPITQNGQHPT
Description for D(3) dopamine receptor: Displacement of [3H]spiroperidol from human cloned dopamine D3 receptor expressed in CHO cells

Turning to `COc1ccccc1N1CCN(Cc2c(C)[nH]c3nc(N(C)C)ncc23)CC1`, the Ki at D(2) dopamine receptor [1] is 2900 nM; at D(4) dopamine receptor it was 6.4 nM; at D(1A) dopamine receptor, 6800 nM; at D(2) dopamine receptor [2] it was 2600 nM; at D(3) dopamine receptor, 6100 nM. The Activity in assay [3] was found to be 0%; on D(2) dopamine receptor [4] it was 20%; in assay [5], 80%.
